Measured values from BindingDB's records for doi:10.1016/j.ejmech.2021.113780 (Shandong University, 2021).

Assay: Inhibition of capsid protein in HBV infected in human HepDES19 cells assessed as inhibition of viral replication incubated for 3 days by strand preferential qPCR analysis

`CCOC(=O)C1=C(CN2CC3(CC2=O)CN(C(=O)OC(C)(C)C)C3)NC(c2nccs2)=NC1c1ccc(F)cc1Br` (centres undefined) and `CCOC(=O)C1=C(CN2CC3(CCN(C(=O)OC(C)(C)C)C3)CC2=O)NC(c2nccs2)=NC1c1ccc(F)cc1Br` (centres undefined) are within 1.5-fold of each other in EC50: 13.3 µM for the first, 10 µM for the second.

`CCOC(=O)C1=C(CN2CCC3(CCN(C(=O)OC(C)(C)C)C3)C2=O)NC(c2nccs2)=NC1c1ccc(F)cc1Br` (centres undefined) and `CCOC(=O)C1=C(CN2CCC3(CCN(C(=O)OC(C)(C)C)C3)C2)NC(c2nccs2)=NC1c1ccc(F)cc1Br` (centres undefined) are within 1.5-fold of each other in EC50: 5.17 µM for the first, 4.83 µM for the second.

`CCOC(=O)C1=C(CN2CCC3(CNC(=O)C3)C2)NC(c2nccs2)=NC1c1ccc(F)cc1Br` (centres undefined) and `CCOC(=O)C1=C(CN2CCC3(CC2)CNC(=O)C3)NC(c2nccs2)=NC1c1ccc(F)cc1Br` (centres undefined) are within 1.5-fold of each other in EC50: 2.6 µM for the first, 3.8 µM for the second.

First: CCOC(=O)C1=C(CN2CCC3(CC2)CNC3=O)NC(c2nccs2)=NC1c1ccc(F)cc1Br (centres undefined)
Second: CCOC(=O)C1=C(CN2CCC3(CCNC3=O)CC2)NC(c2nccs2)=NC1c1ccc(F)cc1Br (centres undefined)
The EC50 of the first is 2.9-fold lower: 1.17 µM for the first, 3.43 µM for the second. The first is the more potent here.

First: CCOC(=O)C1=C(CN2CCC3(CC(=O)N(Cc4ccccc4)C3=O)C2)NC(c2nccs2)=NC1c1ccc(F)cc1Br (centres undefined)
Second: CCOC(=O)C1=C(CN2CCC3(CC2)CC(=O)NC3=O)NC(c2nccs2)=NC1c1ccc(F)cc1Br (centres undefined)
The EC50 of the first is 3.1-fold higher: 2.1 µM for the first, 0.68 µM for the second.

Going from `CCOC(=O)C1=C(CN2CCC3(CC2)OCCO3)NC(c2nccs2)=NC1c1ccc(F)cc1Br` (centres undefined) to `CCOC(=O)C1=C(CN2CCC3(CC2)CN(C(=O)OC(C)(C)C)C3)NC(c2nccs2)=NC1c1ccc(F)cc1Br` (centres undefined), the EC50 rises from 0.2 µM to 10.4 µM (52-fold). The first is the more potent here.

First: CCOC(=O)C1=C(CN2CCC3(C2)CN(C(=O)OC(C)(C)C)C3)NC(c2nccs2)=NC1c1ccc(F)cc1Br (centres undefined)
Second: Nc1ccn([C@@H]2CS[C@H](CO)O2)c(=O)n1 [Epivir]
The EC50 of the first is 24-fold higher: 8.83 µM for the first, 0.37 µM for the second.
